Experiment [1] concerns the target Cyclin-dependent kinase 7/ cyclin H (Homo sapiens) (UniProt P51946+P50613). Nature of the experiment: Selectivity interaction (Upstate Kinase Profiler service (Millipore)) EUB0000056c CDK7. In kind it is protein-complex assay. As to conditions: at 1 µM.
The target in experiment [2] is Serine/threonine-protein kinase N2 (Homo sapiens, UniProt Q16513). The experiment is described as follows: Selectivity interaction (ProQinase) EUB0000171b PKN2.
In experiment [3] the target is Serine/threonine-protein kinase PAK 1 (Homo sapiens) (UniProt Q13153). The experiment is described as follows: Selectivity interaction (ProQinase) EUB0000171b PAK1.
Experiment [4] concerns the target Cyclin-dependent kinase 3 (Homo sapiens) (UniProt Q00526). Particulars: at 10 µM.
Experiment [5] deals with Tyrosine-protein kinase BTK (Homo sapiens, UniProt Q06187). As to conditions: at 10 µM.
Experiment [6] addresses Mitogen-activated protein kinase kinase kinase 9 (Homo sapiens) (UniProt P80192). Particulars: at 10 µM.
Experiment [7] addresses T1, Ephrin type-B receptor 1 (Homo sapiens) (UniProt P54762).
T1 sequence (whole entry): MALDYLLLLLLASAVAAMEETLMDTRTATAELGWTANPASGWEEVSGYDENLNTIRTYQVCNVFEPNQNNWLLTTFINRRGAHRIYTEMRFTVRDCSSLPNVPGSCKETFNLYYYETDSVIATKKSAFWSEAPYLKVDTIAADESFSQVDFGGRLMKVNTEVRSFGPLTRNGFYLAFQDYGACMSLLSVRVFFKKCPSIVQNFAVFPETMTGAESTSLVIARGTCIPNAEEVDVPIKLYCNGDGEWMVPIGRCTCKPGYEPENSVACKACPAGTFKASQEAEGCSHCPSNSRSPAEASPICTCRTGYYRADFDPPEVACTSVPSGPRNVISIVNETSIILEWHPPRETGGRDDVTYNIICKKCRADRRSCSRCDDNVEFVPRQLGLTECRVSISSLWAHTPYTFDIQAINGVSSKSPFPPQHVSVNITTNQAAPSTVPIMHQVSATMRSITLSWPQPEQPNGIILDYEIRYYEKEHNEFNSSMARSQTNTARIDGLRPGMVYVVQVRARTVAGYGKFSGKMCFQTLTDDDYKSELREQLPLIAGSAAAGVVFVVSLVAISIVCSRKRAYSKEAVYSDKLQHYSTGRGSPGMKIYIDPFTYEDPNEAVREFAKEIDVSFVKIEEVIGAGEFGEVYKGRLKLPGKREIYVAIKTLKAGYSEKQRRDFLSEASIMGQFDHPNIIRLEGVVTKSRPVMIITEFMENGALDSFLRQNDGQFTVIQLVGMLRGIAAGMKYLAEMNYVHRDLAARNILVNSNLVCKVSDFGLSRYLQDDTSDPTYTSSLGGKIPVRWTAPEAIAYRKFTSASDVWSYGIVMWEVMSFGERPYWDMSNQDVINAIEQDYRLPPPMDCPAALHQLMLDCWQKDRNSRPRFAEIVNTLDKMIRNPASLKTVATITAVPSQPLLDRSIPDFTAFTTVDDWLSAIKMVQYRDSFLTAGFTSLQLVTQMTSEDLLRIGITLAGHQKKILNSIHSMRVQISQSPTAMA
Nature of the experiment: Selectivity interaction (KinomeScan (DiscoverX)) EUB0000092b EPHB1. As to conditions: at 10 µM.

Experiment [8] concerns the target T2, Serine/threonine-protein kinase Nek11 (Homo sapiens) (UniProt Q8NG66).
T2 sequence (whole entry): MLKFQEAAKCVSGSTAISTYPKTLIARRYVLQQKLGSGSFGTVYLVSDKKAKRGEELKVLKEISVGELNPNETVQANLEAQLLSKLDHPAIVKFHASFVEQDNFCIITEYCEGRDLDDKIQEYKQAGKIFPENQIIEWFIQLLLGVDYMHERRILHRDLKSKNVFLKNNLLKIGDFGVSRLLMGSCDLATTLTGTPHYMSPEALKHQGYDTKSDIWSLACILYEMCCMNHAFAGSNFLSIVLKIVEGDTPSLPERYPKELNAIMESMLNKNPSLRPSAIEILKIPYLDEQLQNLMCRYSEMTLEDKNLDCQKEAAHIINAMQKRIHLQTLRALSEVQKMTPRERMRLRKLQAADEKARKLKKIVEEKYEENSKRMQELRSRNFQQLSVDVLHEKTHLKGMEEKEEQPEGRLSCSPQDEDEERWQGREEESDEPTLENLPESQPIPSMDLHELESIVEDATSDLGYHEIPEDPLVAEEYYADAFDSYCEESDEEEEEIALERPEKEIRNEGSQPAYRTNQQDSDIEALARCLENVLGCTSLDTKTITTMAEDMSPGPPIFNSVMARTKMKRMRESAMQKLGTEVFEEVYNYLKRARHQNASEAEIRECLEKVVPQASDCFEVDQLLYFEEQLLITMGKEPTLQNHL
The experiment is described as follows: Selectivity interaction (KinomeScan (DiscoverX)) EUB0000655a NEK11. Particulars: at 10 µM.

Experiment [9] has as its target Cyclin-dependent kinase 14 (Homo sapiens) (UniProt O94921). The experiment is described as follows: Selectivity interaction (KinomeScan (DiscoverX)) EUB0000655a CDK14. Particulars: at 10 µM.
The target of experiment [10] is Histone-lysine N-methyltransferase ASH1L (Homo sapiens) (UniProt Q9NR48). The experiment is described as follows: Selectivity interaction (Methyltransferase screen (radiometric assays, panel of 8 PRMTs, 21 protein lysine methyltransferases, 3 DNA methyltransferases, and one RNA methyltransferase)) EUB0000271b ASH1L.
In experiment [11] the target is Tyrosine-protein kinase JAK1 (Homo sapiens, UniProt P23458). Nature of the experiment: Selectivity interaction (KinomeScan (DiscoverX)) EUB0001868a JAK1. Particulars: at 1 µM.
For experiment [12], the target named is Ribosomal protein S6 kinase alpha-2 (Homo sapiens) (UniProt Q15349). Nature of the experiment: Selectivity interaction (Kinase panel (Z-LYTE Assay)) EUB0001632a RPS6KA2. Particulars: at 10 µM.
Experiment [13] addresses Receptor tyrosine-protein kinase erbB-4 (Homo sapiens, UniProt Q15303). Nature of the experiment: Selectivity interaction (SelectScreen profiling (Invitrogen)) EUB0000607a ERBB4. Particulars: at 2 µM.
The target of experiment [14] is Cyclin-dependent kinase 4 (Homo sapiens, UniProt P11802). The experiment is described as follows: Selectivity interaction (ActivX KiNativ screen (kinase selectivity in THP-1 cell lysates)) EUB0000639a CDK4. As to conditions: lysate. It counts as subcellular.
The target in experiment [15] is 5-hydroxytryptamine receptor 2A (Homo sapiens, UniProt P28223). The experiment is described as follows: Selectivity interaction (Serotonin 5HT2A Calcium flux assay, agonist and antagonist mode ) EUB0000877a HTR2A.
Experiment [16] deals with Phosphatidylinositol 4,5-bisphosphate 3-kinase catalytic subunit alpha isoform (Homo sapiens), P42336 [H1047Y]. Particulars: at 10 µM.
For experiment [17], the target named is Cyclin-dependent kinase-like 1 (Homo sapiens) (UniProt Q00532). The experiment is described as follows: Selectivity interaction (KinomeScan (DiscoverX)) EUB0000595a CDKL1. Particulars: at 10 µM.

Bounds are passed on as bounds.

Sequence of Cyclin-dependent kinase 4 (P11802 whole entry): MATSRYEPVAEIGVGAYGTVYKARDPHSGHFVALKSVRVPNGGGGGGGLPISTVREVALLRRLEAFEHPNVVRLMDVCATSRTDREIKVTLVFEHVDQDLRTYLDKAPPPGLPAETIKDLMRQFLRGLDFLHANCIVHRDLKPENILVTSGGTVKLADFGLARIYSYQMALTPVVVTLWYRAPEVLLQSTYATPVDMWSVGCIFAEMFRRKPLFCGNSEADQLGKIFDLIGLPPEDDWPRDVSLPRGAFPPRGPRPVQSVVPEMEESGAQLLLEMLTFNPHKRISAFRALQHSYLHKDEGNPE
Sequence of Serine/threonine-protein kinase PAK 1 (Homo sapiens) (Q13153 whole entry): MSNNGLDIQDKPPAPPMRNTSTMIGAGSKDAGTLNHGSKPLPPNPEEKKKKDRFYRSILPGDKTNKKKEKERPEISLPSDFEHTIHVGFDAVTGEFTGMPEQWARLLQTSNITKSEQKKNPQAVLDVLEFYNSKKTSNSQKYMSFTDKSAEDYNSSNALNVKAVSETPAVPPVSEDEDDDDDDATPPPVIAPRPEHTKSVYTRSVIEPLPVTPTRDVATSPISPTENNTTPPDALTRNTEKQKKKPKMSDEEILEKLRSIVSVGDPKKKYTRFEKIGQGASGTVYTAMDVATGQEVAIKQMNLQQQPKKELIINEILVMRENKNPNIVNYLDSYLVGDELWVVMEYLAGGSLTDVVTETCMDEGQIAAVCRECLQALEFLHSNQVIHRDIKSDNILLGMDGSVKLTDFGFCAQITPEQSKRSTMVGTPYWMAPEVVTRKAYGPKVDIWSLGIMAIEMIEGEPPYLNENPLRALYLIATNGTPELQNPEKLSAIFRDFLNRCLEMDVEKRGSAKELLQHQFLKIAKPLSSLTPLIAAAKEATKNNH
Sequence of Serine/threonine-protein kinase N2 (Q16513 whole entry, looked up): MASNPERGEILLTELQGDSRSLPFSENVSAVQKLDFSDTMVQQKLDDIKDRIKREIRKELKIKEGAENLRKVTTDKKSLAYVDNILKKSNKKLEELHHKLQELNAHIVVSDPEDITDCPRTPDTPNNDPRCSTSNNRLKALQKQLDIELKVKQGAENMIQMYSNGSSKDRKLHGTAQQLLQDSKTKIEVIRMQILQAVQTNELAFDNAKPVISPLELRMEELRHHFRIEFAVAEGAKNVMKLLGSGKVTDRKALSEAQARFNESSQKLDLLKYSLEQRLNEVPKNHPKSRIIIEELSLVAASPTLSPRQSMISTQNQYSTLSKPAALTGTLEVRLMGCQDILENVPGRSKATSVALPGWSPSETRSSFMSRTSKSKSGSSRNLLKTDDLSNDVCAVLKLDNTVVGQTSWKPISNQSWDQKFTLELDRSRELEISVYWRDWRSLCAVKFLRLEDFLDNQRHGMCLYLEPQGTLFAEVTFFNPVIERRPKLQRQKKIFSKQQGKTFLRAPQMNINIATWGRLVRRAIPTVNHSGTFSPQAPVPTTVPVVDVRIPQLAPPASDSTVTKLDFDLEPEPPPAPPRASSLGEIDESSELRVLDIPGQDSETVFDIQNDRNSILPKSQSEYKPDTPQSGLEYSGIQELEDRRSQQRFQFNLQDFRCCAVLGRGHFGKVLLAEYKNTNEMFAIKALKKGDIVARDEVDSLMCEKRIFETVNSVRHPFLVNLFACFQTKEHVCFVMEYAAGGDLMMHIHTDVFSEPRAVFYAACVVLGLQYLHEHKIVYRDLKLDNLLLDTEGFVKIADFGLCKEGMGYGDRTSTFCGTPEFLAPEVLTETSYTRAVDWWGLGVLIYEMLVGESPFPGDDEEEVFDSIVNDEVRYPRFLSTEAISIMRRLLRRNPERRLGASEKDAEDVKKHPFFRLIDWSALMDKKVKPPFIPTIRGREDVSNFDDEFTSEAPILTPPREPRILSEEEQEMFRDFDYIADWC
Sequence of Cyclin-dependent kinase-like 1 (Homo sapiens) (Q00532 whole entry): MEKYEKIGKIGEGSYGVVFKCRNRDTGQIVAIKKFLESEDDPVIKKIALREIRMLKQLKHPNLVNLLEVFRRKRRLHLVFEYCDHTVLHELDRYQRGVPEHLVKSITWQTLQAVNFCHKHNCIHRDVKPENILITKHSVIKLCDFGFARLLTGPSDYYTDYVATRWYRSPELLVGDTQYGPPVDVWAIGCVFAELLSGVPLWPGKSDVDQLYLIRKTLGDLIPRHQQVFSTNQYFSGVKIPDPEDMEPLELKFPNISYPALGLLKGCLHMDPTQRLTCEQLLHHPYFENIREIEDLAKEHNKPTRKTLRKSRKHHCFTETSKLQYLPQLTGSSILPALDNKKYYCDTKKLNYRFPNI
Sequence of Mitogen-activated protein kinase kinase kinase 9 (Homo sapiens) (P80192 whole entry, looked up): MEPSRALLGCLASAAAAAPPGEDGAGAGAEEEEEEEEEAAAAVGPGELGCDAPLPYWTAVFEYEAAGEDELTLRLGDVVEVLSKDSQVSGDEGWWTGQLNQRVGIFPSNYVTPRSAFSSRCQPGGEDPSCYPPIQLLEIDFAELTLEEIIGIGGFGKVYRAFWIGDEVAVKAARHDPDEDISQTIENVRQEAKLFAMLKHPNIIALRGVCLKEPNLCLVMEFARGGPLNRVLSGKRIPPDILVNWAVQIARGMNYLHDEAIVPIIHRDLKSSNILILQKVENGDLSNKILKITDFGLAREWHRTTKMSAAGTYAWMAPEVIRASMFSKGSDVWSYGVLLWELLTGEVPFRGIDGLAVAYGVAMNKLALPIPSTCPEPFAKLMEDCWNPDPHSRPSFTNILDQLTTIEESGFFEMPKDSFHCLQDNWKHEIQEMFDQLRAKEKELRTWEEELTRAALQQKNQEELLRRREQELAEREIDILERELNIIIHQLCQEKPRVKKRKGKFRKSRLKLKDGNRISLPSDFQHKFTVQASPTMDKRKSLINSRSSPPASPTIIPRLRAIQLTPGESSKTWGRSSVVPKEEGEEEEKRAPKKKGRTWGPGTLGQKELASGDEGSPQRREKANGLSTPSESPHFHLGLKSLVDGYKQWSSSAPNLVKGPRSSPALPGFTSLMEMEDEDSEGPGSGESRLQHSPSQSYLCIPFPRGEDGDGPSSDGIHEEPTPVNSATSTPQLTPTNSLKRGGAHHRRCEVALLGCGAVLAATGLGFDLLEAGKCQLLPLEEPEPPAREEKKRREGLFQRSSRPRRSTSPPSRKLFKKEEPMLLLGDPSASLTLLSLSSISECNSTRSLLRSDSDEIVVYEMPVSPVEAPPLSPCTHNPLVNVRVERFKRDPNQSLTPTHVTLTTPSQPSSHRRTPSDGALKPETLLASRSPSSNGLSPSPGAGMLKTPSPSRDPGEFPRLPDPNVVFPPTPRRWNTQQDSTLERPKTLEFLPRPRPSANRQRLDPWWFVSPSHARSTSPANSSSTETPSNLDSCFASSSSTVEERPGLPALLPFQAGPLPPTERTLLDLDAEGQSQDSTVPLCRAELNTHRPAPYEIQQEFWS
Sequence of Cyclin-dependent kinase 14 (Homo sapiens) (O94921 whole entry): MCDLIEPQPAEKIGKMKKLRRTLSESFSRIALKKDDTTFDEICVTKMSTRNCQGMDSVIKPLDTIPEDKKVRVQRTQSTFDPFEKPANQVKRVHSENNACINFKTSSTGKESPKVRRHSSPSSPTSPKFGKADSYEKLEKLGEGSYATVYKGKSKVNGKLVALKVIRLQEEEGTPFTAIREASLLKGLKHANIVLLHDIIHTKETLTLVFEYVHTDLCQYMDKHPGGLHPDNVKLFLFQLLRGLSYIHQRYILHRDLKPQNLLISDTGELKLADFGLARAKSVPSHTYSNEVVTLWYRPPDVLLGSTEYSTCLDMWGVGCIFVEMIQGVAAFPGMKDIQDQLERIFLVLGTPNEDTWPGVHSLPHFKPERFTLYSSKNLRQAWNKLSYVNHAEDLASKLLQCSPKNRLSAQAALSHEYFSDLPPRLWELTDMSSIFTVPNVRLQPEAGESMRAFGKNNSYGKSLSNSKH
Sequence of 5-hydroxytryptamine receptor 2A (P28223 whole entry, canonical isoform): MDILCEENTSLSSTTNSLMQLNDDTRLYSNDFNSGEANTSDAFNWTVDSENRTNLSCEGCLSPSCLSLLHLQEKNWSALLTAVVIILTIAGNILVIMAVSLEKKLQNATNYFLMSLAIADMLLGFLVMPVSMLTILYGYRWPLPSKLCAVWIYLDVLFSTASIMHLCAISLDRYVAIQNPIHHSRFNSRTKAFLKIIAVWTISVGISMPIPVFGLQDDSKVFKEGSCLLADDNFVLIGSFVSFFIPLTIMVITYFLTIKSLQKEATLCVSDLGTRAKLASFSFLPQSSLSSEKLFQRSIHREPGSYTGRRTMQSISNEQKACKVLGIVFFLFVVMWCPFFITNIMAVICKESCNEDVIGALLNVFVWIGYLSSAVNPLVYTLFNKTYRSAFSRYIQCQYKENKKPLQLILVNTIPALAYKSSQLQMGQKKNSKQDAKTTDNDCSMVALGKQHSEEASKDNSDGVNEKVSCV
Sequence of Cyclin-dependent kinase 3 (Homo sapiens) (Q00526 whole entry, looked up): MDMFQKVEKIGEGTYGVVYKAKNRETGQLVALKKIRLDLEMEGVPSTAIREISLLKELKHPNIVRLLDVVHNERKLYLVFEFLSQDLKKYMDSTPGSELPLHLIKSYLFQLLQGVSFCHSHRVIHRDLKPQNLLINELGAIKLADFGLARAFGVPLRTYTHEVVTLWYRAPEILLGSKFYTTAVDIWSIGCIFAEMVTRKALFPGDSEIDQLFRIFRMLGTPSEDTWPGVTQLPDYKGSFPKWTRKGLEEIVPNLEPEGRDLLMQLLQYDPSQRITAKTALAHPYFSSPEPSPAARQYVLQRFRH

With `Cc1ccc(-c2ccc3c(ccc4sc5c(c43)NC[C@@H](C)NC5=O)n2)cn1`, the % of inhibition in experiment [1] came out at 5%.
Regarding `C=CC(=O)Nc1cccc(C(=O)Nc2ccc(Nc3cc(-c4[nH]c(SC)nc4C)ccn3)cc2)c1`, the % of control in [2] (at 1 µM) was 90%; in [2] (at 5 µM), 76%; in experiment [3] (at 1 µM), 90%; in experiment [3] (at 5 µM), 84%.
For `Cc1cc([C@@H](C)Nc2ccccc2C(=O)O)c2nc(N3CCOCC3)cc(=O)n2c1` [AZD-6482], the % of control in [4] amounted to 100%.
For the compound `CCN(CC)CCCCNc1ncc2cc(-c3cc(OC)cc(OC)c3)c(NC(=O)NC(C)(C)C)nc2n1`, the % of control in [5] and in experiment [6] was 100% each time.
In experiment [7], `CCC(=O)N1CCN(c2ccc(-n3c(=O)ccc4cnc5ccc(-c6cnc7ccccc7c6)cc5c43)cc2C(F)(F)F)CC1` registered a % of control of 100%.
For `CN(C)CCOc1ccc(-c2nc(-c3ccncc3)c(-c3ccc4c(c3)CC/C4=N\O)[nH]2)cc1`, the values for the % of control in experiment [8] and in [9] were 81% and 100%, respectively.
Regarding `Cc1cc(C)cc([C@@H]2c3cc(C)ccc3NC(=O)CN2C(=O)c2ccc(Br)s2)c1`, the % of activity in experiment [10] (at 1 µM) was determined as 97.3%; in experiment [10] (at 10 µM), 105%.
In [11], `Cc1cc(-c2ccnc(Nc3cnn(C)c3)n2)ccc1CNC(=O)N1CC(OC(C)C)C1` showed a % of control of 29%.
As to `Cn1cc(-n2cnc3c(NCc4nc5cc(Cl)c(Cl)cc5[nH]4)nc(N4CCOCC4)nc32)cn1`, the % of control in [12] was found to be 1.22%.
Take `CNC(=O)Nc1ccc(-c2nc(N3CC4CCC(C3)O4)c3cnn(C4CCC5(CC4)OCCO5)c3n2)cc1`: the % of inhibition in experiment [13] turned out to be 3%.
In the case of `CC[C@@H]1[C@H](F)C(=O)N[C@@H]1COc1nccc2cc(C(N)=O)c(OC)cc12` [ZIMLOVISERTIB], the % of inhibition is -1.8% in [14] (at 0.01 µM); -3.4% in [14] (at 0.04 µM); -2.3% in experiment [14] (at 0.2 µM); -9.6% in experiment [14] (at 1 µM); -24.4% in [14] (at 5 µM).
As a reminder, the IC50 is the concentration needed to halve the response being measured. As for `CCC(=O)N1CC[C@H](Nc2ncnc3c2CN(c2cnc(OC)c(C(F)(F)F)c2)CC3)C1` [LENIOLISIB], the IC50 in experiment [15] is over 30 µM.
Take `COCC(=O)NC/C=C/c1ccc2ncnc(Nc3ccc(Oc4ccc(C)nc4)c(C)c3)c2c1` [CP-724714]: the % of control was 47% in experiment [16] and 69% in experiment [17].

Values taken from ChEMBL document CHEMBL5465560, “Selectivity Literature for EUbOPEN Chemogenomic Library” (2024).
